Measured values taken from article PMC4684330, “Potentiation of Neuronal Nicotinic Receptors by 17β-Estradiol: Roles of the Carboxy-Terminal and the Amino-Terminal Extracellular Domains” (PLoS ONE, 2015).
Where two headings read alike, the source gives them in different places.

Key:
α(2.2.4.W)&β2(WLAGMI) = test system: T1, α(2.2.4.W)&β2(WLAGMI); test: two-electrode voltage clamp, agonist activation, Hill fit; type: cell-based, Mus musculus; Homo sapiens; conditions: no steroid, pH 7.3, Ba2+ saline, cRNA 8:1, read-out: ACh EC50
T1 construct: gene Chrna2
Description: two-electrode voltage clamp, agonist activation, Hill fit on α(2.2.4.W)&β2(WLAGMI)

α(4.4.2.F)&β4 = test system: T2, α(4.4.2.F)&β4; test: as above; type: cell-based, Homo sapiens; Mus musculus; conditions: no steroid, pH 7.3, Ba2+ saline, cRNA 20:1, read-out: ACh EC50
T2 construct: gene CHRNA4; alpha4 and alpha2 parts are one polypeptide: alpha4 to D(571)RIFL, alpha2 TM4, tail FLAGMI; cRNA 20:1, oocytes, 3alpha:2beta
Description: two-electrode voltage clamp, agonist activation, Hill fit on α(4.4.2.F)&β4

α(2.4.4.W)&β4 = test system: T3, α(2.4.4.W)&β4; test: as above; type: cell-based, Mus musculus; Homo sapiens; conditions: no steroid, pH 7.3, Ba2+ saline, cRNA 20:1, read-out: ACh EC50
T3 construct: gene Chrna2; alpha2 N-terminal domain and alpha4 remainder are one polypeptide, tail WLAGMI; cRNA 20:1, oocytes, 3alpha:2beta
Description: two-electrode voltage clamp, agonist activation, Hill fit on α(2.4.4.W)&β4

α(4.4.2.F)&β2(WLAGMI) = test system: T4, α(4.4.2.F)&β2(WLAGMI); test: as above; type: cell-based, Homo sapiens; Mus musculus; conditions: no steroid, pH 7.3, Ba2+ saline, cRNA 8:1, read-out: ACh EC50
T4 construct: gene CHRNA4
Description: two-electrode voltage clamp, agonist activation, Hill fit on α(4.4.2.F)&β2(WLAGMI)

α(4.4.2.F)&β2 = test system: T5, α(4.4.2.F)&β2; test: as above; type: cell-based, Homo sapiens; Mus musculus; conditions: no steroid, pH 7.3, Ba2+ saline, cRNA 8:1, read-out: ACh EC50
T5 construct: gene CHRNA4; one alpha polypeptide: alpha4 to D(571)RIFL, alpha2 TM4, tail FLAGMI; with wild-type beta2, cRNA 8:1, oocytes, 3alpha:2beta
Description: two-electrode voltage clamp, agonist activation, Hill fit on α(4.4.2.F)&β2

α4&β4 20:1 [1] = target: T6, α4&β4 20:1 (Homo sapiens, UniProt P43681+Q8R493, P43681:L623W/P43681:W622F); test: cell-based
T6 construct: gene CHRNA4
Description: (§1) two-electrode voltage clamp, agonist activation, Hill fit on α4&β4 20:1

α4&β4 20:1 [2] = target: T7, α4&β4 20:1 (Homo sapiens, UniProt P43681+Q8R493, P43681:W622K); test: cell-based
T7 construct: gene CHRNA4
Description: as §1

α2(W)(α4DtoA)&β4 = test system: T8, α2(W)(α4DtoA)&β4; test: two-electrode voltage clamp, agonist activation, Hill fit; type: cell-based, Mus musculus; Homo sapiens; conditions: no steroid, pH 7.3, Ba2+ saline, cRNA 20:1, read-out: ACh EC50
T8 construct: gene Chrna2; one alpha polypeptide: alpha2(W) carrying alpha4 MMT(57)-IVL(97); cRNA 20:1, oocytes, 3alpha:2beta
Description: two-electrode voltage clamp, agonist activation, Hill fit on α2(W)(α4DtoA)&β4

α(4.2.2.F)&β4 = test system: T9, α(4.2.2.F)&β4; test: as above; type: cell-based, Homo sapiens; Mus musculus; conditions: no steroid, pH 7.3, Ba2+ saline, cRNA 20:1, read-out: ACh EC50
T9 construct: gene CHRNA4; alpha4 and alpha2 parts are one polypeptide: alpha4 N-terminus to V(210)IRRLP, rest alpha2 (TM1-TM3 identical), tail FLAGMI; cRNA 20:1, oocytes, 3alpha:2beta
Description: two-electrode voltage clamp, agonist activation, Hill fit on α(4.2.2.F)&β4

α(2.2.4.W)&β4 = test system: T10, α(2.2.4.W)&β4; test: as above; type: cell-based, Mus musculus; Homo sapiens; conditions: no steroid, pH 7.3, Ba2+ saline, cRNA 20:1, read-out: ACh EC50
T10 construct: gene Chrna2; alpha2 to start of TM4 and alpha4 TM4 are one polypeptide, tail WLAGMI; cRNA 20:1, oocytes, 3alpha:2beta
Description: two-electrode voltage clamp, agonist activation, Hill fit on α(2.2.4.W)&β4

α(2.2.4.W)&β2 = test system: T11, α(2.2.4.W)&β2; test: as above; type: cell-based, Mus musculus; Homo sapiens; conditions: no steroid, pH 7.3, Ba2+ saline, cRNA 8:1, read-out: ACh EC50
T11 construct: gene Chrna2; one alpha polypeptide: alpha2 to start of TM4, alpha4 TM4, tail WLAGMI; with wild-type beta2, cRNA 8:1, oocytes, 3alpha:2beta
Description: two-electrode voltage clamp, agonist activation, Hill fit on α(2.2.4.W)&β2

α4(α2DtoA)&β4 [3] = test system: T12, α4(α2DtoA)&β4; test: as above; type: cell-based, Homo sapiens; Mus musculus; conditions: no steroid, pH 7.3, Ba2+ saline, cRNA 20:1, read-out: ACh EC50
T12 construct: gene CHRNA4; cRNA 20:1, oocytes, 3alpha:2beta

α4(α2DtoA)&β4 [4] = test system: T12, α4(α2DtoA)&β4; test: as above; type: cell-based, Homo sapiens; Mus musculus; conditions: no steroid, pH 7.3, Ba2+ saline, cRNA 20:1, read-out: ACh EC50; remark: listed apart in the source
α(4.4.2.W)&β4 = test system: T13, α(4.4.2.W)&β4; test: as above; type: cell-based, Homo sapiens; Mus musculus; conditions: no steroid, pH 7.3, Ba2+ saline, cRNA 20:1, read-out: ACh EC50
T13 construct: gene CHRNA4; one alpha polypeptide: alpha4 to D(571)RIFL, alpha2 TM4, tail WLAGMI (W as in alpha4); cRNA 20:1, oocytes, 3alpha:2beta
Description: two-electrode voltage clamp, agonist activation, Hill fit on α(4.4.2.W)&β4

α4(F)(α2DtoA+E)&β4 = test system: T14, α4(F)(α2DtoA+E)&β4; test: as above; type: cell-based, Homo sapiens; Mus musculus; conditions: no steroid, pH 7.3, Ba2+ saline, cRNA 20:1, read-out: ACh EC50
T14 construct: gene CHRNA4; cRNA 20:1, oocytes, 3alpha:2beta

α4&β4 1:10 = target: T15, α4&β4 1:10 (Homo sapiens, UniProt P43681+Q8R493); test: as above; type: cell-based; conditions: read-out: ACh EC50
T15 construct: gene CHRNA4; full coding regions, cRNA 1:10 alpha:beta in Xenopus oocytes

α4&β4 20:1 [5] = target: T16, α4&β4 20:1 (Homo sapiens, UniProt P43681+Q8R493, P43681:W622F); test: two-electrode voltage clamp, potentiation of ACh current, Hill fit; type: cell-based; conditions: with ACh giving about 5-7% of maximal; pH 7.3, Ba2+ saline; allosteric potentiator; paper urges circumspection (solubility, block at high concentrations)
T16 construct: gene CHRNA4; full coding regions, cRNA 20:1 alpha:beta in Xenopus oocytes, pentamer 3alpha:2beta, mixed species

α4&β4 20:1 [6] = target: T17, α4&β4 20:1 (Homo sapiens, UniProt P43681+Q8R493); test: as above; type: cell-based; conditions: with ACh giving about 5-7% of maximal; pH 7.3, Ba2+ saline; allosteric potentiator; paper urges circumspection (solubility, block at high concentrations)
T17 construct: gene CHRNA4; full coding regions, cRNA 20:1 alpha:beta in Xenopus oocytes, pentamer 3alpha:2beta, mixed species
T17 sequence (P43681 27-627): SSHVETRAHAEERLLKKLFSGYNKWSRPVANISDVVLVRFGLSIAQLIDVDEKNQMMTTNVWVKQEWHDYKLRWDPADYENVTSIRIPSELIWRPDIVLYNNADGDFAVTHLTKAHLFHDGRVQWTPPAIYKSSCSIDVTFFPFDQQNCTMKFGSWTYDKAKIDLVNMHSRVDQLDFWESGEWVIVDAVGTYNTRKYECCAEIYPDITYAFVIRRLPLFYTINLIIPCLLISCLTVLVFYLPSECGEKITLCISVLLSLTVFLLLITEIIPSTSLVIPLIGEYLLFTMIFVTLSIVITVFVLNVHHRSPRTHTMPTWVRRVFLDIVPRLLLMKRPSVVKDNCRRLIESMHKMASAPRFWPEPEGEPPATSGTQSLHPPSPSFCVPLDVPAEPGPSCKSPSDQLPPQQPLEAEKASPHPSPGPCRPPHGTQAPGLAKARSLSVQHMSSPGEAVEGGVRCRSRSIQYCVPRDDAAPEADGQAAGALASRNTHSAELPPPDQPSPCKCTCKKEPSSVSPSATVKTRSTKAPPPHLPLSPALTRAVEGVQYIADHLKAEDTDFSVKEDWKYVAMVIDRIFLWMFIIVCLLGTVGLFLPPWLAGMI
T17 sequence (Q8R493 21-495): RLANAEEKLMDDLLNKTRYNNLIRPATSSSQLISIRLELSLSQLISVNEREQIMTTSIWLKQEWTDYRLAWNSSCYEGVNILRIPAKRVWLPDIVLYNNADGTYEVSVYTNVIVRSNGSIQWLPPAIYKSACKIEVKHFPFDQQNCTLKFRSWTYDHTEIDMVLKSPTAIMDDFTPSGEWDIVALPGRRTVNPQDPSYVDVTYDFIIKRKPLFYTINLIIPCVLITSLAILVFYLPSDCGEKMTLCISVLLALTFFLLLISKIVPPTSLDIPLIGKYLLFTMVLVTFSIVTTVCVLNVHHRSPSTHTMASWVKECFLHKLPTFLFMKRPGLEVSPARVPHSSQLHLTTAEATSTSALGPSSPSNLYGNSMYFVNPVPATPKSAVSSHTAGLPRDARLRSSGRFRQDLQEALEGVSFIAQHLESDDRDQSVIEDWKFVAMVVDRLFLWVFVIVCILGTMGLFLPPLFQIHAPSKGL

T16 sequence (P43681 27-627 W622F): as the sequence (P43681 27-627) above, with W596F counted along it
T16 sequence (Q8R493 21-495): as the sequence (Q8R493 21-495) above
T15 sequence (P43681 27-627): as the sequence (P43681 27-627) above
T15 sequence (Q8R493 21-495): as the sequence (Q8R493 21-495) above
T7 sequence (P43681 27-627 W622K): as the sequence (P43681 27-627) above, with W596K counted along it
T7 sequence (Q8R493 21-495): as the sequence (Q8R493 21-495) above
T6 sequence (P43681 27-627 W622F/L623W): as the sequence (P43681 27-627) above, with W596F, L597W counted along it
T6 sequence (Q8R493 21-495): as the sequence (Q8R493 21-495) above

Compound	EC50 (α(2.2.4.W)&β2(WLAGMI)) [µM]	EC50 (α(4.4.2.F)&β4) [µM]	EC50 (α(2.4.4.W)&β4) [µM]	EC50 (α(4.4.2.F)&β2(WLAGMI)) [µM]	EC50 (α(4.4.2.F)&β2) [µM]	EC50 (α4&β4 20:1 [1]) [µM]	EC50 (α4&β4 20:1 [2]) [µM]	EC50 (α2(W)(α4DtoA)&β4) [µM]	EC50 (α(4.2.2.F)&β4) [µM]	EC50 (α(2.2.4.W)&β4) [µM]	EC50 (α(2.2.4.W)&β2) [µM]	EC50 (α4(α2DtoA)&β4 [3]) [µM]	EC50 (α4(α2DtoA)&β4 [4]) [µM]	EC50 (α(4.4.2.W)&β4) [µM]	EC50 (α4(F)(α2DtoA+E)&β4) [µM]	EC50 (α4&β4 1:10) [µM]	EC50 (α4&β4 20:1 [5]) [µM]	EC50 (α4&β4 20:1 [6]) [µM]
CC(=O)OCC[N+](C)(C)C [acetylcholine chloride]	[…]	[…]	[…]	[…]	[…]	14 ± 1	14 ± 2	[…]	[…]	[…]	[…]	[…]	[…]	[…]	16 ± 2	14 ± 2.4	–	–
19-norpregna-1,3,5(10)-trien-20-yne-3,17-diol, (17α)-(9CI) [17α-vinyl estradiol]	–	–	–	–	–	–	–	–	–	–	–	–	–	–	–	–	7.32 ± 0.68	3.84 ± 0.27
